# Results as given in US20250177408A1, “INHIBITOR OF INTERACTION BETWEEN YAP/TAZ AND TEAD, PREPARATION THEREOF, PHARMACEUTICAL COMPOSITION THEREOF AND USE THEREOF” (ETERN BIOPHARMA (SHANGHAI) CO., LTD., priority 2022, published 2025).
# Counter-ions that a name gives are not always drawn.
# How the values were obtained:
# [1] = target: YAP-TEAD protein interaction (His-TEAD1 (209-426) protein, Bio-YAP peptide (60-100)) (Homo sapiens, UniProt P28347); test: YAP-TEAD protein interaction HTRF experiment; type: binding; conditions: His-TEAD1 (209-426) 10 nM, Bio-YAP peptide 50 nM, read-out: Activity of each compound in blocking YAP-TEAD protein interaction (grades of IC50 values)
# Sequence of YAP-TEAD protein interaction (His-TEAD1 (209-426) protein, Bio-YAP peptide (60-100)) (P28347 209-426): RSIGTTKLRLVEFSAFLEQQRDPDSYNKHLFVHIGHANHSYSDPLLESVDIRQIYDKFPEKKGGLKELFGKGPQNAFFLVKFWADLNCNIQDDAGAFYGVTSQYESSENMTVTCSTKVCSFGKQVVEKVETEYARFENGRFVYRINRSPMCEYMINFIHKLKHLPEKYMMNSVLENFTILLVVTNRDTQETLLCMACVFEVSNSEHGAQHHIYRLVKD
# Method: In this example, the YAP-TEAD protein interaction HTRF experiment was used to detect the activity of each compound in blocking the YAP-TEAD protein interaction.
# The experiment was carried out according to the following operation steps:
# Step 1: His-TEAD1 (209-426) protein was added to a 384-well detection white plate to a final concentration of 10 nM, and buffer was used as the background signal well. The compounds to be tested were subjected to 3-fold dilution and a total of 10 concentration gradients were set up, and each diluted solution was mixed well. A certain volume of the compound to be tested was added to each well separately, 2 replicates were set for each concentration, and the final concentration of DMSO was controlled at 1%. Incubation was carried out at room temperature for 20 minutes. The amino acid sequence of TAED1 (209-426) used in this step is shown in SEQ ID NO: 1:
# After mixing evenly, the mixture was incubated at room temperature for 10 minutes.
# Step 3: Anti-His-Eu cryptate gold and streptavidin-XL665 were diluted according to the instructions and mixed in equal proportions. A certain volume of the detection reagent was added to the well, and the mixture was incubated at room temperature for 1 hour.
# Step 4: The signal was detected using an Envision (Perkin Elmer) microplate reader at an excitation wavelength of 320 nm and emission wavelengths of 665 nm and 620 nm.
# Step 5: The signal was calculated based on the ratio of Em665/Em620*10000.
# (§1) The inhibition percentage (%) was calculated using the following formula: […]
# The half-maximal inhibitory concentration (IC50) values were calculated using GraphPad Prism software.
# MSTO-211H cells = test: Cell proliferation inhibition experiment (CellTiter-Glo); type: cell-based; conditions: Homo sapiens, 96 hours, read-out: Inhibitory activity of each compound on the proliferation of MSTO-211H cells (grades of IC50 values)
# Method: In this example, the intracellular ATP was quantitatively determined by the CellTiter-Glo luminescence cell viability detection kit to detect the number of living cells in the culture.
# Step 1: MSTO-211H (ATCC, CRL-2081TM) or NCI-H2052 (ATCC, CRL-5915TM) cells were inoculated in a 96-well plate at a density of 1500 cells per well with a volume of 100 μL per well, and the cells were incubated overnight in a 37° C., 5% carbon dioxide incubator. The culture medium used was RPMI1640 medium (GIBCO-A10491-01)+10% FBS (GIBCO-10099141C)+1% penicillin/streptomycin (Pen/Strep) (GIBCO-15070-063).
# Step 2: The cells were treated with the compounds to be tested. The compounds to be tested were 3-fold diluted, and a total of 9 concentration gradients were set up; a certain volume of DMSO or the compounds to be tested was added to each well, respectively, and 2 replicates were set up for each concentration, and the final concentration of DMSO was controlled to be no higher than 0.5%. The cells were incubated for 96 hours in a 37° C., 5% carbon dioxide incubator.
# Step 3: Cell viability was detected in the control group and treatment group using CellTiter-Glo Luminescent Cell Viability Assay kit (Promega, G7570). 50 μL of CellTiter-Glo was added to each well, mixed well, and incubated at room temperature for 10 minutes. The signal was read using En Vision® Multilabel Plate Reader (Perkin Elmer).
# as §1
# Using Graphpad Prism software, the IC50 values of the compounds inhibiting the CTG signal of cell proliferation activity was calculated.
SMILES,IC50 [1] [nM],IC50 (MSTO-211H cells) [nM]
"Cn1cc2c(n1)COc1c-2cc(C#N)c(-c2c(Cl)c(F)cc3c2C[C@](c2ccccc2)([C@@H]2CCCN2)O3)c1F (atropisomer, axis not shown) [Compound 2, (S)-7-((S)-5-Chloro-6-fluoro-2-phenyl-2-((S)-pyrrolidin-2-yl)-2,3-dihydrobenzofuran-4-yl)-6-fluoro-2-methyl-2,4-dihydrochromeno[3,4-c]pyrazole-8-carbonitrile]",< 50,200 to 500
"Cn1cc2c(n1)COc1c-2cc(C(N)=O)c(-c2c(Cl)c(F)cc3c2C[C@](c2ccccc2)([C@@H]2CC4(CC4)CN2)O3)c1F (atropisomer, axis not shown) [Compound 9, (S)-7-((S)-5-Chloro-6-fluoro-2-phenyl-2-((S)-5-azaspiro[2.4]heptan-6-yl)-2,3-dihydrobenzofuran-4-yl)-6-fluoro-2-methyl-2,4-dihydrochromeno[3,4-c]pyrazole-8-carboxamide hydrochloride]",< 50,< 200
"CNC(=O)c1cc2c(c(F)c1-c1c(Cl)c(F)cc3c1C[C@](c1ccccc1)([C@@H]1CCCN1)O3)OCc1nn(C)cc1-2 (atropisomer, axis not shown) [Compound 39, (S)-7-((S)-5-Chloro-6-fluoro-2-phenyl-2-((S)-pyrrolidin-2-yl)-2,3-dihydrobenzofuran-4-yl)-6-fluoro-N,2-dimethyl-2,4-dihydrochromeno[3,4-c]pyrazole-8-carboxamide]",< 50,< 200
"CNC[C@@]1(c2ccccc2)Cc2c(cc(F)c(Cl)c2-c2c(C(N)=O)cc3c(c2F)OCc2nn(C)cc2-3)O1 (atropisomer, axis not shown) [Compound 41, (S)-7-((S)-5-Chloro-6-fluoro-2-((methylamino)methyl)-2-phenyl-2,3-dihydrobenzofuran-4-yl)-6-fluoro-2-methyl-2,4-dihydrochromeno[3,4-c]pyrazole-8-carboxamide]",< 50,< 200
"NC(=O)c1cc2c(c(F)c1-c1c(Cl)c(F)cc3c1C[C@](c1ccccc1)([C@@H]1CCCN1)O3)OCC21CCNCC1 (atropisomer, axis not shown) [Compound 44, (S)-6-((S)-5-Chloro-6-fluoro-2-phenyl-2-((S)-pyrrolidin-2-yl)-2,3-dihydrobenzofuran-4-yl)-7-fluoro-2H-spiro [benzofuran-3,4′-piperidine]-5-carboxamide]",50 to 500,> 5000
"CO[C@H]1CC[C@H](NC[C@@]2(c3ccccc3)Cc3c(cc(F)c(Cl)c3-c3c(C(N)=O)cc4c(c3F)OCc3nn(C)cc3-4)O2)CC1 (atropisomer, axis not shown) [Compound 78, (S)-7-((S)-5-Chloro-6-fluoro-2-((((1R,4S)-4-methoxycyclohexyl)amino)methyl)-2-phenyl-2,3-dihydrobenzofuran-4-yl)-6-fluoro-2-methyl-2,4-dihydrochromeno[3,4-c]pyrazole-8-carboxamide]",< 50,< 200
"Cn1cc2c(n1)COc1c-2cc(C(N)=O)c(-c2c(Cl)c(F)cc3c2C[C@@](CN[C@H]2CC[C@H](C(N)=O)CC2)(c2ccccc2)O3)c1F (atropisomer, axis not shown) [Compound 79]",< 50,200 to 500
"COCCCNC[C@@]1(c2ccccc2)Cc2c(cc(F)c(Cl)c2-c2c(C(N)=O)cc3c(c2F)OCc2nn(C)cc2-3)O1 (atropisomer, axis not shown) [Compound 83, (S)-7-((S)-5-Chloro-6-fluoro-2-(((3-methoxypropyl)amino)methyl)-2-phenyl-2,3-dihydrobenzofuran-4-yl)-6-fluoro-2-methyl-2,4-dihydrochromeno[3,4-c]pyrazole-8-carboxamide formate]",,< 200

# More lines, main results first:
IC50 [1] [nM],SMILES,IC50 (MSTO-211H cells) [nM]
< 50,"NC(=O)c1cc2cccnc2c(F)c1-c1c(Cl)c(F)cc2c1C[C@](c1ccccc1)([C@@H]1CCCN1)O2 (atropisomer, axis not shown) [Compound 4, (S)-7-((S)-5-Chloro-6-fluoro-2-phenyl-2-((S)-pyrrolidin-2-yl)-2,3-dihydrobenzofuran-4-yl)-8-fluoroquinoline-6-carboxamide]",< 200
< 50,"NC(=O)c1cc2c(c(F)c1-c1c(Cl)c(F)cc3c1C[C@](c1ccccc1)([C@@H]1CCCN1)O3)OCC1(CC1)O2 (atropisomer, axis not shown) [Compound 5, (S)-6-((S)-5-Chloro-6-fluoro-2-phenyl-2-((S)-pyrrolidin-2-yl)-2,3-dihydrobenzofuran-4-yl)-5-fluoro-3H-spiro[benzo[b][1,4]dioxoine-2, l'-cyclopropane]-7-carboxamide]",< 200
< 50,"NC(=O)c1cc2c(c(F)c1-c1c(Cl)c(F)cc3c1C[C@](c1ccccc1)([C@@H]1CCCN1)O3)OCc1nccnc1-2 (atropisomer, axis not shown) [Compound 6, (S)-8-((S)-5-Chloro-6-fluoro-2-phenyl-2-((S)-pyrrolidin-2-yl)-2,3-dihydrobenzofuran-4-yl)-7-fluoro-5H-chromeno[3,4-b]pyrazine-9-carboxamide]",< 200
< 50,"NC(=O)c1cc2c(c(F)c1-c1c(Cl)c(F)cc3c1C[C@](c1ccccc1)([C@@H]1CCCN1)O3)OCc1n[nH]nc1-2 (atropisomer, axis not shown) [Compound 7, (S)-7-((S)-5-Chloro-6-fluoro-2-phenyl-2-((S)-pyrrolidin-2-yl)-2,3-dihydrobenzofuran-4-yl)-6-fluoro-2,4-dihydrochromeno[3,4-d][1,2,3]triazole-8-carboxamide]",200 to 500
< 50,"NC(=O)c1cc2c(c(F)c1-c1c(Cl)c(F)cc3c1C[C@](c1ccccc1)([C@@H]1CCCN1)O3)Oc1nccnc1O2 (atropisomer, axis not shown) [Compound 10, (S)-8-((S)-5-Chloro-6-fluoro-2-phenyl-2-((S)-pyrrolidin-2-yl)-2,3-dihydrobenzofuran-4-yl)-9-fluorobenzo[5,6][1,4]dioxino[2,3-b]pyrazine-7-carboxamide]",< 200
< 50,"NC(=O)c1cc2c(c(F)c1-c1c(Cl)c(F)cc3c1C[C@](c1ccccc1)([C@@H]1CCCN1)O3)OCc1nncn1-2 (atropisomer, axis not shown) [Compound 42, (S)-7-((S)-5-Chloro-6-fluoro-2-phenyl-2-((S)-pyrrolidin-2-yl)-2,3-dihydrobenzofuran-4-yl)-6-fluoro-4H-benzo[b][1,2,4]triazolo[4,3-d][1,4]oxazine-8-carboxamide]",500 to 5000
< 50,"NC(=O)c1cc2c(c(F)c1-c1c(Cl)c(F)cc3c1C[C@](c1ccccc1)([C@@H]1CCCN1)O3)OCc1n[nH]cc1-2 (atropisomer, axis not shown) [Compound 46, (S)-7-((S)-5-Chloro-6-fluoro-2-phenyl-2-((S)-pyrrolidin-2-yl)-2,3-dihydrobenzofuran-4-yl)-6-fluoro-2,4-dihydrochromeno[3,4-c]pyrazole-8-carboxamide]",< 200
< 50,"CCn1cc2c(n1)COc1c-2cc(C(N)=O)c(-c2c(Cl)c(F)cc3c2C[C@](c2ccccc2)([C@@H]2CCCN2)O3)c1F (atropisomer, axis not shown) [Compound 62, (S)-7-((S)-5-Chloro-6-fluoro-2-phenyl-2-((S)-pyrrolidin-2-yl)-2,3-dihydrobenzofuran-4-yl)-2-ethyl-6-fluoro-2,4-dihydrochromeno[3,4-c]pyrazole-8-carboxamide]",< 200
< 50,"NC(=O)c1cc2c(c(F)c1-c1c(Cl)c(F)cc3c1C[C@](c1ccccc1)([C@@H]1CCCN1)O3)Oc1cnncc1O2 (atropisomer, axis not shown) [Compound 67, (S)-8-((S)-5-Chloro-6-fluoro-2-phenyl-2-((S)-pyrrolidin-2-yl)-2,3-dihydrobenzofuran-4-yl)-9-fluorobenzo[5,6][1,4]dioxo[2,3-d]pyridazine-7-carboxamide]",200 to 500
